Experiments:
[1] = target: Macrophage-stimulating protein receptor (Homo sapiens, UniProt Q04912); test: Inhibition of Ron by HTRF assay
MV4-11 [2] = test: Cell cycle arrest in human MV411 cells assessed as accumulation at sub-G1 phase at 0.1 uM after 48 hrs by propidium iodide assay; format: functional
MV4-11 [3] = test: Cell cycle arrest in human MV411 cells assessed as accumulation at G0/G1 phase at 0.1 uM after 48 hrs by propidium iodide assay; format: functional
MV4-11 [4] = test: Cell cycle arrest in human MV411 cells assessed as accumulation at sub-G1 phase at 1 uM after 48 hrs by propidium iodide assay; format: functional
MV4-11 [5] = test: Antiproliferative activity against […] FLT3 expressing human MV411 cells after 72 hrs by WST8 assay; format: functional, cell-based; conditions: MV4-11, 72 h
MV4-11 [6] = test: Cell cycle arrest in human MV411 cells assessed as accumulation at S phase at 0.1 uM after 48 hrs by propidium iodide assay; format: functional
MV4-11 [7] = test: Cell cycle arrest in human MV411 cells assessed as accumulation at G2/M phase at 1 uM after 48 hrs by propidium iodide assay; format: functional
MV4-11 [8] = test: Cell cycle arrest in human MV411 cells assessed as accumulation at G2/M phase at 0.1 uM after 48 hrs by propidium iodide assay; format: functional
MV4-11 [9] = test: Cell cycle arrest in human MV411 cells assessed as accumulation at G0/G1 phase at 0.01 uM after 48 hrs by propidium iodide assay; format: functional
MV4-11 [10] = test: Cell cycle arrest in human MV411 cells assessed as accumulation at S phase at 1 uM after 48 hrs by propidium iodide assay; format: functional
[11] = target: Vascular endothelial growth factor receptor 2 (Homo sapiens, UniProt P35968); test: Inhibition of VEGFR2 by HTRF assay
MV4-11 [12] = test: Cell cycle arrest in human MV411 cells assessed as accumulation at G2/M phase at 0.01 uM after 48 hrs by propidium iodide assay; format: functional
MV4-11 [13] = test: Cell cycle arrest in human MV411 cells assessed as accumulation at sub-G1 phase at 0.01 uM after 48 hrs by propidium iodide assay; format: functional
Insulin receptor = Insulin receptor (Homo sapiens, UniProt P06213); test: Inhibition of insulin receptor by HTRF assay
[14] = target: Hepatocyte growth factor receptor (Homo sapiens, UniProt P08581); test: Inhibition of Met by HTRF assay
MV4-11 [15] = test: Cell cycle arrest in human MV411 cells assessed as accumulation at G0/G1 phase at 1 uM after 48 hrs by propidium iodide assay; format: functional
[16] = target: T1, Receptor-type tyrosine-protein kinase FLT3 (Homo sapiens, UniProt P36888); test: Inhibition of FLT3 by HTRF assay
T1 sequence (P36888 whole entry): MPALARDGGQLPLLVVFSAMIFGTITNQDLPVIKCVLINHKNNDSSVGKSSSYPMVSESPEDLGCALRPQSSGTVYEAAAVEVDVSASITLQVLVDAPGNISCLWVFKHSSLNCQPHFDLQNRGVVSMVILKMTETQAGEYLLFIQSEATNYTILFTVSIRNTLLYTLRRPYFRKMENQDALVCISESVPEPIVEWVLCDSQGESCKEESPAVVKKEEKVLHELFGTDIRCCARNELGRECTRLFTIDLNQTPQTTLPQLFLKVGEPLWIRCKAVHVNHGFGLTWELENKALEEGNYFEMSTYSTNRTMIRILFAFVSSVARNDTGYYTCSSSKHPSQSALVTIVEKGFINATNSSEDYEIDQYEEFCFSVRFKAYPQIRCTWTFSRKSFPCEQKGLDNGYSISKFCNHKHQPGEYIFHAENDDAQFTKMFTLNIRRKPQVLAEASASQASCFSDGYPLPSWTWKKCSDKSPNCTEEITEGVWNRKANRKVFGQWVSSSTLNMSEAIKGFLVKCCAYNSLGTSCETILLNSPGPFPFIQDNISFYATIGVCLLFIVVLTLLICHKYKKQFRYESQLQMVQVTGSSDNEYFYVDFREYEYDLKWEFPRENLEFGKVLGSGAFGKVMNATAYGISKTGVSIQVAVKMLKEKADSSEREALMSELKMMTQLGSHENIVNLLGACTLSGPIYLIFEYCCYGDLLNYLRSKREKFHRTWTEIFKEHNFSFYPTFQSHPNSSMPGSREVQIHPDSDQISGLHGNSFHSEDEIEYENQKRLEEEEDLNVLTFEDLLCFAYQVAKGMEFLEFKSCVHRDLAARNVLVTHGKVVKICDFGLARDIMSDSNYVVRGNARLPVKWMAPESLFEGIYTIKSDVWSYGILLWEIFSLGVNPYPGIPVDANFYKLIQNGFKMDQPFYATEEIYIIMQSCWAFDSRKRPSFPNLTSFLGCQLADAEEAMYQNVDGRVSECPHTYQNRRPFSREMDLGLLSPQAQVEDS

[17] = Antiproliferative activity against human RS4:11 cells having FLT3-ITD mutation after 72 hrs by WST8 assay; format: functional, cell-based; conditions: RS4-11, 72 h
Aurora kinase A = target: T2, Aurora kinase A (Homo sapiens, UniProt O14965); test: Inhibition of Aurora A by HTRF assay
T2 sequence (O14965 whole entry): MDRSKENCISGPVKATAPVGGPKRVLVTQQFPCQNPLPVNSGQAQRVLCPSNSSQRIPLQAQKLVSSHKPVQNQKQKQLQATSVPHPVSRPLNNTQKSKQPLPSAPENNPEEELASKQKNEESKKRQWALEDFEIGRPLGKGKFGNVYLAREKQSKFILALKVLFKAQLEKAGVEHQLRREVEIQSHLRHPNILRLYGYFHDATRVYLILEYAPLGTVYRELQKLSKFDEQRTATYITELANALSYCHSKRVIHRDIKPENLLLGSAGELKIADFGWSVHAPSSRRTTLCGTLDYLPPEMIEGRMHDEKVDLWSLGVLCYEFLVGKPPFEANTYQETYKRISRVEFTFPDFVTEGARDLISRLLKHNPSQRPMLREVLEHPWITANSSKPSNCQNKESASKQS

[18] = target: Epidermal growth factor receptor (Homo sapiens, UniProt P00533); test: Inhibition of EGFR by HTRF assay
MV4-11 [19] = test: Cell cycle arrest in human MV411 cells assessed as accumulation at S phase at 0.01 uM after 48 hrs by propidium iodide assay; format: functional

Chain of Vascular endothelial growth factor receptor 2 (P35968 whole entry): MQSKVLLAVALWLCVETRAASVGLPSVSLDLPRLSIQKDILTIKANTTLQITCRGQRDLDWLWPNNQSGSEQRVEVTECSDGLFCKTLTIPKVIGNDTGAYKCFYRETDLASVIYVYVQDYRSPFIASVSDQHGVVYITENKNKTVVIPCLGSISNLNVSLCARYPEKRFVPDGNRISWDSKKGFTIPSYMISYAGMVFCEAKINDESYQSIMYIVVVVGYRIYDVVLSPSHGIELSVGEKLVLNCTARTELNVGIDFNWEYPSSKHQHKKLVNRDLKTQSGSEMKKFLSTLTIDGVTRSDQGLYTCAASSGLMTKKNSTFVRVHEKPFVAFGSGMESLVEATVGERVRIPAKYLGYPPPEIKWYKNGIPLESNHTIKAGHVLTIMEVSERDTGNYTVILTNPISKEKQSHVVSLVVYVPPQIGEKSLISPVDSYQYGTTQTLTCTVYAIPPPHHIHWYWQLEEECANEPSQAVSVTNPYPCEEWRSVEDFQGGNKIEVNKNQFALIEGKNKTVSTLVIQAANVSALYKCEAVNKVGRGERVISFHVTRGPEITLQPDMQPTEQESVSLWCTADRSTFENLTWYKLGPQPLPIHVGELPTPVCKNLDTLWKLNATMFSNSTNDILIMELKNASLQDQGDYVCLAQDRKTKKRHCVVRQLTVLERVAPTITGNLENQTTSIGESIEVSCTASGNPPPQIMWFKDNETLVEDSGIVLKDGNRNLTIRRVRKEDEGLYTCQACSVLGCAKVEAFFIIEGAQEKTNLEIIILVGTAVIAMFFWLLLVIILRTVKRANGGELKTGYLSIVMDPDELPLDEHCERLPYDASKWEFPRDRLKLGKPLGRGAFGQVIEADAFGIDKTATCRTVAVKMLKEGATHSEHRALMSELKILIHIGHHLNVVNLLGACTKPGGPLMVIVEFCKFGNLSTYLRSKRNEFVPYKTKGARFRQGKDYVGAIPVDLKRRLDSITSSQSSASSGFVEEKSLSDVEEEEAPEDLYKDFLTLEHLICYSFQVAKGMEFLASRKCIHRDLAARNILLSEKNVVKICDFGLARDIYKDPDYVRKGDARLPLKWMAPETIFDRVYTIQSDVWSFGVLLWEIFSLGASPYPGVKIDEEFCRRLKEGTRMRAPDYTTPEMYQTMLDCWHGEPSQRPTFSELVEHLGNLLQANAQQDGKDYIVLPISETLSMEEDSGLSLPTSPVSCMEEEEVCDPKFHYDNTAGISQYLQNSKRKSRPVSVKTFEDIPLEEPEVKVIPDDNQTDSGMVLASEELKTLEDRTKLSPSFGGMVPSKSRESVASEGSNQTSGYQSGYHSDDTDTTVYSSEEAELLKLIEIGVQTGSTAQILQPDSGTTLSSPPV
Chain of Epidermal growth factor receptor (P00533 whole entry): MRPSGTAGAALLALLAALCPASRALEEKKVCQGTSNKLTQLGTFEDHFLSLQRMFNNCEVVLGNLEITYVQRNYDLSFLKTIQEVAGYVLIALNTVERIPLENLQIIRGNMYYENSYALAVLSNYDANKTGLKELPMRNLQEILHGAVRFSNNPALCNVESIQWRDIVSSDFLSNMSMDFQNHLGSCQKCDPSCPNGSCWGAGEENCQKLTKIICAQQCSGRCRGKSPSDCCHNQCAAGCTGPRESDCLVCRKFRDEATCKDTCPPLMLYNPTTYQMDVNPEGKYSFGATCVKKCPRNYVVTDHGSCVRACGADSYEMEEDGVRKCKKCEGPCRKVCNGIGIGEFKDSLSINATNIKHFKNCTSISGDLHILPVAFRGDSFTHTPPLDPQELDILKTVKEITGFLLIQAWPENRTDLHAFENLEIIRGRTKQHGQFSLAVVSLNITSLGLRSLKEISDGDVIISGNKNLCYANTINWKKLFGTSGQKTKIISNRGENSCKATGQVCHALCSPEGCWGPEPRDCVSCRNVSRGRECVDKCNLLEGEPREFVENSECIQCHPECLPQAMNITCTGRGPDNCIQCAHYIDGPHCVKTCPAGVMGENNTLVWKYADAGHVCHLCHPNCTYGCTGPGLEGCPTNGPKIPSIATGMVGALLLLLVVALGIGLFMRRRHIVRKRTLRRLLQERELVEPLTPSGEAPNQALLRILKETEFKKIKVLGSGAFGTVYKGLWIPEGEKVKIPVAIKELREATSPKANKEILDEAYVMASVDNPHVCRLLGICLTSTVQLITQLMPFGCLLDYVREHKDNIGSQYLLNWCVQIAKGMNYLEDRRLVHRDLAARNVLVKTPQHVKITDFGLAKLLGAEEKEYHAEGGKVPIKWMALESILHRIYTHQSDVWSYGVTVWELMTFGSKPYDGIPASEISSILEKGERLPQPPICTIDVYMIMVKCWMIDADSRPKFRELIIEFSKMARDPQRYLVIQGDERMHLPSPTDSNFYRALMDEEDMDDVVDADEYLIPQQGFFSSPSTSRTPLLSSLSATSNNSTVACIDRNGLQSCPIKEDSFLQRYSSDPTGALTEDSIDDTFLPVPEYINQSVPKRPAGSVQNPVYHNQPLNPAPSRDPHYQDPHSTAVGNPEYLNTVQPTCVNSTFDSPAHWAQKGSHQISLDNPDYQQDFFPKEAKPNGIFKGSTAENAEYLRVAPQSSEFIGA
Chain of Hepatocyte growth factor receptor (P08581 whole entry): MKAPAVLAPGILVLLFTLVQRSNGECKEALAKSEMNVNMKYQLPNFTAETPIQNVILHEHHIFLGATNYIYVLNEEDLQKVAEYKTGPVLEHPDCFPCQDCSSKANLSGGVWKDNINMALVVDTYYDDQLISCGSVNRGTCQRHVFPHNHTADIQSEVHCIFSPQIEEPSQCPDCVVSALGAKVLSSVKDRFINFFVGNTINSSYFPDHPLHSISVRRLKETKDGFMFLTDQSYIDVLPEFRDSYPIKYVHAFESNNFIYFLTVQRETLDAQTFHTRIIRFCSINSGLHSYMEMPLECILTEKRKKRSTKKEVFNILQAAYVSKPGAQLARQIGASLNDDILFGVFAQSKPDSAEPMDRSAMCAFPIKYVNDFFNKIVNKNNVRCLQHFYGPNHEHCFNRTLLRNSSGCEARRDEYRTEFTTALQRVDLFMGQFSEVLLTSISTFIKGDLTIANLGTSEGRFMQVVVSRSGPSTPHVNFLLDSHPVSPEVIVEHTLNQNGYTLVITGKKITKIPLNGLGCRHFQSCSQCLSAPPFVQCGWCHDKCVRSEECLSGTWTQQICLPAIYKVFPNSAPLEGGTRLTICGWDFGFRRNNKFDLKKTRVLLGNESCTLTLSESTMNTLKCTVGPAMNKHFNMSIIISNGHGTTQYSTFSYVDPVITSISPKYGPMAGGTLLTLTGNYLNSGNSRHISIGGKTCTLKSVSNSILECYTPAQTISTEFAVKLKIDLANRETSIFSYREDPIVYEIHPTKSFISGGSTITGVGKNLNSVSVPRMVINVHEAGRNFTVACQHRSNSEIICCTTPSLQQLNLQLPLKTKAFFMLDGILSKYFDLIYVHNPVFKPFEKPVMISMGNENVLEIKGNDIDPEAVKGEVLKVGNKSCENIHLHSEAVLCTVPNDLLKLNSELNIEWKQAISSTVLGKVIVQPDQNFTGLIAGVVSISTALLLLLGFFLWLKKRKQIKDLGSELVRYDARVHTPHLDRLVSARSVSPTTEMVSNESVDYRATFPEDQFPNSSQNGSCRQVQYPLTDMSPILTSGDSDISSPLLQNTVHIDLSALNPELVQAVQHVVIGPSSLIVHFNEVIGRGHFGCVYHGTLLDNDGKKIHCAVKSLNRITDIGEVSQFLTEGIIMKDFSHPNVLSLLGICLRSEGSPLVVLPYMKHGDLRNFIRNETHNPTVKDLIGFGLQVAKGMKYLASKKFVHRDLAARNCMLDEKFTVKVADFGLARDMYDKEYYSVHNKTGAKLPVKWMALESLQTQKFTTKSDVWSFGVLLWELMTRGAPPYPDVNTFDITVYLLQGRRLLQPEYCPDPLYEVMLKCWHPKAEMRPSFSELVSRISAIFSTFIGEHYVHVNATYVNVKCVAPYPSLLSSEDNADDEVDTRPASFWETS

`O=C1Nc2ccc(F)cc2/C1=C1/Nc2ccccc2/C1=N\O` gave an IC50 [1] greater than 10 µM, an Activity (MV4-11 [2]) of 32.76% and an Activity (MV4-11 [3]) of 57.44%. It also gave an Activity (MV4-11 [4]) of 37.73%, an IC50 (MV4-11 [5]) of 0.072 µM and an Activity (MV4-11 [6]) of 6.42%. It also gave an Activity (MV4-11 [7]) of 1.05%, an Activity (MV4-11 [8]) of 2.91% and an Activity (MV4-11 [9]) of 61.62%. For the same compound, the Activity (MV4-11 [10]) was 2.85%, the IC50 [11] was 1.53 µM and the Activity (MV4-11 [12]) was 11.53%. The Activity (MV4-11 [13]) was 9.24%, the IC50 (Insulin receptor) was greater than 10 µM and the IC50 [14] was greater than 10 µM. It also gave an Activity (MV4-11 [15]) of 58.06%, an IC50 [16] of 0.015 µM and an IC50 [17] of 2.21 µM. It also gave an IC50 (Aurora kinase A) of 1.27 µM, an IC50 [18] greater than 10 µM and an Activity (MV4-11 [19]) of 16.55%.

`O=C1Nc2ccc(OC(F)(F)F)cc2/C1=C1/Nc2ccccc2/C1=N\O` showed an IC50 (MV4-11 [5]) greater than 3.55 µM, an IC50 [16] greater than 10 µM and an IC50 [17] of 3.36 µM.

With `CC(=O)N1/C(=C2\C(=O)Nc3ccccc32)C(=O)c2ccccc21` the IC50 (MV4-11 [5]) was greater than 10 µM, the IC50 [16] was greater than 10 µM and the IC50 [17] was greater than 10 µM.

With `O=C1Nc2ccc([N+](=O)[O-])cc2/C1=C1/Nc2ccc(Br)cc2/C1=N/O` the IC50 (MV4-11 [5]) was greater than 0.27 µM, the IC50 [16] was greater than 10 µM and the IC50 [17] was 0.16 µM.

For `Cc1cc(C)c2c(c1)/C(=C1/Nc3ccccc3/C1=N\O)C(=O)N2`, the IC50 (MV4-11 [5]) was 2.4 µM, the IC50 [16] was 0.952 µM and the IC50 [17] was greater than 10 µM.

Work on `Cc1cc(Cl)cc2c1NC(=O)/C2=C1\Nc2ccccc2\C1=N/O` yielded an IC50 (MV4-11 [5]) greater than 10 µM, an IC50 [16] greater than 10 µM and an IC50 [17] greater than 10 µM.

Work on `O=C1Nc2ccc(S(=O)(=O)O)cc2/C1=C1/Nc2ccccc2/C1=N\O` yielded an IC50 (MV4-11 [5]) greater than 10 µM, an IC50 [16] of 0.009 µM and an IC50 [17] greater than 10 µM.

`Cc1ccc2c(c1)/C(=C1/Nc3ccccc3/C1=N\O)C(=O)N2` showed an IC50 (MV4-11 [5]) of 0.26 µM, an IC50 [16] of 0.028 µM and an IC50 [17] of 8.56 µM.

For `Cc1ccc2[nH]c(O)c(C3=Nc4ccccc4C3=O)c2c1`, the IC50 (MV4-11 [5]) was 1.54 µM, the IC50 [16] was 0.209 µM and the IC50 [17] was greater than 10 µM.

Work on `O=C1C(c2c(O)[nH]c3ccc(I)cc23)=Nc2ccccc21` yielded an IC50 (MV4-11 [5]) of 4.79 µM, an IC50 [16] of 4.72 µM and an IC50 [17] greater than 10 µM.

Compound `O=C1C(c2c(O)[nH]c3ccc([N+](=O)[O-])cc23)=Nc2ccccc21` has an IC50 (MV4-11 [5]) greater than 10 µM, an IC50 [16] greater than 10 µM and an IC50 [17] greater than 10 µM.

For `O=Nc1c(-c2c(O)[nH]c3ccc(I)cc23)[nH]c2ccccc12`, the IC50 (MV4-11 [5]) was 0.36 µM, the IC50 [16] was 0.418 µM and the IC50 [17] was 1.45 µM.

For `O=C1C(c2c(O)[nH]c3ccc(Cl)cc23)=Nc2ccccc21`, the IC50 (MV4-11 [5]) was 7 µM, the IC50 [16] was 0.212 µM and the IC50 [17] was greater than 10 µM.

In the case of `O=C1C(c2c(O)[nH]c3ccc(F)cc23)=Nc2ccccc21`, the IC50 (MV4-11 [5]) is reported as greater than 10 µM, the IC50 [16] is reported as 10.1 µM and the IC50 [17] is reported as greater than 10 µM.

In the case of `O=C1C(c2c(O)[nH]c3ccc(S(=O)(=O)O)cc23)=Nc2ccccc21`, the IC50 (MV4-11 [5]) is reported as greater than 10 µM, the IC50 [16] is reported as 0.28 µM and the IC50 [17] is reported as greater than 10 µM.

For `O=Nc1c(-c2c(O)[nH]c3ccc([N+](=O)[O-])cc23)[nH]c2ccccc12`, the IC50 (MV4-11 [5]) was 0.45 µM, the IC50 [16] was 0.062 µM and the IC50 [17] was 0.56 µM.

With `O=C1Nc2ccc(Cl)cc2/C1=C1/Nc2ccccc2/C1=N\O` the IC50 (MV4-11 [5]) was 0.22 µM, the IC50 [16] was 0.082 µM and the IC50 [17] was 1.58 µM.

With `Nc1ccc2c(c1)/C(=C1/Nc3ccccc3C1=O)C(=O)N2` the IC50 (MV4-11 [5]) was 4.3 µM, the IC50 [16] was 0.359 µM and the IC50 [17] was 4.67 µM.

In the case of `Nc1ccc2c(c1)/C(=C1/Nc3ccccc3/C1=N\O)C(=O)N2`, the IC50 (MV4-11 [5]) is reported as 1.65 µM, the IC50 [16] is reported as 0.128 µM and the IC50 [17] is reported as 3.34 µM.

`Nc1ccn([C@@H]2O[C@H](CO)[C@@H](O)[C@@H]2O)c(=O)n1` [CYTARABINE] gave an IC50 (MV4-11 [5]) of 3.36 µM and an IC50 [17] of 0.26 µM.

`O=Nc1c(-c2c(O)[nH]c3ccccc23)[nH]c2ccccc12` [INDIRUBIN-3-MONOXIME] gave an IC50 (MV4-11 [5]) of 0.15 µM, an IC50 [16] of 0.033 µM and an IC50 [17] of 3.56 µM.

Compound `O=C1Nc2ccccc2/C1=C1/Nc2ccccc2C1=O` [INDIRUBIN] has an IC50 (MV4-11 [5]) greater than 10 µM, an IC50 [16] greater than 10 µM and an IC50 [17] greater than 10 µM.

In the case of `C[C@]12O[C@H](C[C@]1(O)CO)n1c3ccccc3c3c4c(c5c6ccccc6n2c5c31)CNC4=O` [LESTAURTINIB], the IC50 (MV4-11 [5]) is reported as 0.009 µM and the IC50 [17] is reported as 0.12 µM.

Source: ChEMBL document CHEMBL1155384 (Bioorg Med Chem Lett, 2010)
